Data as given in ChEMBL document CHEMBL1128242, “Polyiodinated triglyceride analogs as potential computed tomography imaging agents for the liver” (J Med Chem, 1995).

Tests used:
Assay type in all cases: ADME, organism-based
Rattus norvegicus [1] = assay: Distribution of radioactivity was determined in blood at 30 min after intravenous administration of 1,3-Disubstituted Triacylglycerols in rats; settings: in vivo, 0.5 h
Rattus norvegicus [2] = assay: Distribution of radioactivity was determined in blood at 3h after intravenous administration of 1,3-Disubstituted Triacylglycerols in rats; settings: in vivo
Rattus norvegicus [3] = assay: Distribution of radioactivity was determined in plasma at 3h after intravenous administration of [125I]-labeled 2-oleoglycerol 1,3-Bis-[omega-(3-amino-2,4,6-triiodophenyl)alkanoates] in rats; settings: in vivo
Rattus norvegicus [4] = assay: Distribution of radioactivity was determined in spleen at 30 min after intravenous administration of 1,3-Disubstituted Triacylglycerols in rats; settings: in vivo, 0.5 h
Rattus norvegicus [5] = assay: Distribution of radioactivity was determined in spleen at 30 min after intravenous administration of [125I]-labeled 2-oleoglycerol 1,3-Bis-[omega-(3-amino-2,4,6-triiodophenyl)alkanoates] in rats; settings: in vivo, 0.5 h
Rattus norvegicus [6] = assay: Distribution of radioactivity was determined in blood at 24 hr after intravenous administration of 1,3-Disubstituted Triacylglycerols in rats; settings: in vivo
Rattus norvegicus [7] = assay: Distribution of radioactivity was determined in blood at 24 hr after intravenous administration of [125I]-labeled 2-oleoglycerol 1,3-Bis-[omega-(3-amino-2,4,6-triiodophenyl)alkanoates] in rats; settings: in vivo
Rattus norvegicus [8] = assay: Distribution of radioactivity was determined in kidney at 30 min after intravenous administration of [125I]-labeled 2-oleoglycerol 1,3-Bis-[omega-(3-amino-2,4,6-triiodophenyl)alkanoates] in rats; settings: in vivo, 0.5 h
Rattus norvegicus [9] = assay: Polyacrylamide Gel Electrophoresis (PAGE) to determined the concentration of low density lipoprotein (LDL) in rats after iv administration of [125I]-labeled 2-Oleolyl 1,3-disubstituted triglycerols was reported; settings: in vivo
Rattus norvegicus [10] = assay: Polyacrylamide Gel Electrophoresis (PAGE) to determined the concentration of stacking gel(SG) in rats after iv administration of [125I]-labeled 2-Oleolyl 1,3-disubstituted triglycerols was reported; settings: in vivo
Rattus norvegicus [11] = assay: Distribution of radioactivity was determined in liver at 3h after intravenous administration of [125I]-labeled 2-oleoglycerol 1,3-Bis-[omega-(3-amino-2,4,6-triiodophenyl)alkanoates] in rats; settings: in vivo
Rattus norvegicus [12] = assay: Distribution of radioactivity was determined in plasma at 24 hr after intravenous administration of [125I]-labeled 2-oleoglycerol 1,3-Bis-[omega-(3-amino-2,4,6-triiodophenyl)alkanoates] in rats; set-up: unit not given here; settings: in vivo
Rattus norvegicus [13] = assay: Analysis of lipid-soluble radioactivity in plasma 0.5 hour after iv administration of [125I]-labeled 2-Oleoyl 1,3-disubstituted Triacylglycerols expressed as %parent compound (by TLC with authentic [125I]-labeled standard) from rat; settings: in vivo

Q: What does the source list for CCCCCCCC/C=C/CCCCCCCC(=O)OC(COC(=O)CCCc1c(I)cc(I)c(N)c1I)COC(=O)CCCc1c(I)cc(I)c(N)c1I?
A: Distribution of radioactivity (Rattus norvegicus [1]): 5.8 % dose/organ; Distribution of radioactivity (Rattus norvegicus [2]): 0.9 % dose/organ; Distribution of radioactivity (Rattus norvegicus [3]): 0.13 % dose/g; Distribution of radioactivity (Rattus norvegicus [4]): 13.7 % dose/organ; Distribution of radioactivity (Rattus norvegicus [5]): 31.7 % dose/g; Distribution of radioactivity (Rattus norvegicus [6]): 1.5 % dose/organ; Distribution of radioactivity (Rattus norvegicus [7]): 0.15 % dose/g; Distribution of radioactivity (Rattus norvegicus [8]): 0.14 % dose/g; Radioactivity (Rattus norvegicus [9]): 3.2%; Radioactivity (Rattus norvegicus [10]): 80.9%; Distribution of radioactivity (Rattus norvegicus [11]): 13.8 % dose/g; Distribution of radioactivity (Rattus norvegicus [12]): 0.24; Lipid-soluble radioactivity (Rattus norvegicus [13]): 85.8

Q: What does the source list for CCCCCCCC/C=C/CCCCCCCC(=O)OC(COC(=O)CCc1c(I)cc(I)c(N)c1I)COC(=O)CCc1c(I)cc(I)c(N)c1I?
A: Distribution of radioactivity (Rattus norvegicus [1]): 5.1 % dose/organ; Distribution of radioactivity (Rattus norvegicus [2]): 0.7 % dose/organ; Distribution of radioactivity (Rattus norvegicus [3]): 0.09 % dose/g; Distribution of radioactivity (Rattus norvegicus [4]): 13 % dose/organ; Distribution of radioactivity (Rattus norvegicus [5]): 27.6 % dose/g; Distribution of radioactivity (Rattus norvegicus [6]): 0.4 % dose/organ; Distribution of radioactivity (Rattus norvegicus [7]): 0.04 % dose/g; Distribution of radioactivity (Rattus norvegicus [8]): 0.11 % dose/g; Radioactivity (Rattus norvegicus [9]): 8.3%; Radioactivity (Rattus norvegicus [10]): 67.3%; Distribution of radioactivity (Rattus norvegicus [11]): 10.9 % dose/g; Distribution of radioactivity (Rattus norvegicus [12]): 0.05
